In patent US20220152012A1 (The Regents of the University of California, priority 2020, published 2022):
Read-outs that look alike come from different tables or passages of the source.

How the values were obtained:
[1] = system: human hepatic stellate cells from non-fibrotic subjects; test: Prevention of TGF-β or H2O2-induced collagen production (Sirius Red); assay type: cell-based; conditions: inducer alone: H2O2 25 μM or TGF-β 20 ng/mL, 24 h, vs vehicle
Procedure: Hepatic stellate cell fibrosis quantification.
Hepatic stellate cell fibrosis was assessed by measuring collagen content by Sirius Red staining kit.

[2] = system: human hepatic stellate cells from normal non-fibrosis subjects; test: ROS (DCFDA) after oxidative stress induced by palmitic acid or H2O2; assay type: cell-based; conditions: inducer alone: palmitic acid 0.5 mM or H2O2 25 μM, vs vehicle
Procedure: Reactive Oxygen Species (ROS) quantification. ROS production, as an index of oxidative stress, in stellate cells was measured using DCFDA fluorescence as described previously. In brief, cells were incubated with DCFDA (10 μmol/L) for 30 min.

[3] = cited from earlier work
[4] = cited from earlier work; remark: listed apart in the source
[5] = cited from earlier work; remark: listed apart in the source

Compound: OO [H2O2, hydrogen peroxide]
- increase of collagen content [1]: 266%
- induction of stellate cell ROS levels [2]: 5.2 fold

Compound: O=C(O[C@H]1[C@H](OC(=O)c2cccnc2)[C@@H](OC(=O)c2cccnc2)[C@H](OC(=O)c2cccnc2)[C@@H](OC(=O)c2cccnc2)[C@H]1OC(=O)c1cccnc1)c1cccnc1 [inositol hexanicotinate]
- peak plasma level of nicotinic acid ([3]; 1,000 mg of IHN (˜910 mg nicotinic acid equivalent), oral): 0.2 µg/mL
- time for hydrolysis of the ester bonds and release of free nicotinic acid ([3]; human serum): more than 48 hours
- time of peak plasma levels of free nicotinic acid ([3]; oral doses of 0.8 to 4.2 g of inositol hexanicotinate, humans): 6 to 12 h
- gastrointestinal absorption, average of orally ingested dose absorbed ([3]; oral): 70%
- tolerability ([4]; in vivo): well tolerated
- management of dyslipidemia ([4]; vs placebo (Keenan 2010)): no better than placebo

Compound: O=C(O)c1cccnc1 [niacin, nicotinic acid]
- absorption ([5]; oral amounts of 3-4 grams): nearly complete
- time of peak plasma levels of free nicotinic acid ([5]; oral dose of 1000 mg of nicotinic acid): 0.5 to 1 h
- eliminated by the kidneys as unchanged niacin or nicotinuric acid ([5]; oral pharmacologic dose): Approximately 88%
- peak plasma level of nicotinic acid ([5]; single oral dose of 1000 mg nicotinic acid): 30 µg/mL

Compound: CCCCCCCCCCCCCCCC(=O)O [palmitic acid]
- induction of stellate cell ROS levels [2]: 3.6 fold

Compound: TGF-β
- increase of collagen content [1]: 233%
